According to EP1955072B1, “FLEXIBLE CARBOHYDRATE-BEARING POLYMER” (PreciSense A/S, priority 2005, dated 2007):

Key:
[1] = molecular target: T1, biotinylated MBL (Mannan Binding Lectin) (Homo sapiens, UniProt P11226); assay: ELLA (Enzyme Linked Lectin Assay), glucose inhibition of MBL binding to coated antigen, Examples A8/A8a
Description: Biotinylated MBL was prepared as follows. Biotin-NHS (20 µl, 7 mg/ml in DMSO, -10-15 eq. per MBL monomer) was added to a solution of MBL (3 ml, 0.53 mg) in PBS (3 mL). The solution was gently stirred for 2 h, then transferred to a dialysis tube (MWCO 10-12K) and dialysed against TBS (2 × 1 L) over the course of 24 h. The resulting biotinylated MBL (0.2 mg/ml) in TBS was used without further purification.
The wells were then washed (2x200 µl PBS). ConA-HRP 1% (w/v)(100 µl) in PBS was added and incubated for 1 h. Plates were then emptied and washed (3x200 µl PBS). […] The wells were then washed (2x200 µl TBS). […] Plates were then emptied and washed (3x200 µl TBS).

[2] = molecular target: T1, biotinylated MBL (Mannan Binding Lectin); assay: ELLA (Enzyme Linked Lectin Assay), glucose inhibition of MBL binding to coated antigen, Examples C3/C5; settings: glucose as inhibitor, 1.25 mM CaCl2, value only valid for this particular assay
Description: The wells were then washed (2 x 200 µl TBS).
Plates were then emptied and washed (3 x 200 µl TBS). […] The results are shown in the graphs in Fig. 1. High absorptions correspond to binding of MBL to the ligand. Baseline absorption corresponds to no binding of MBL to the ligand. […] Therefore, in an optimization step (Example C4) a range of mannose co-polymers having mannose monomer unit contents within the range of 30 % to 50 % were synthesized.
An ELLA assay was carried out as described in Example C3. […] From the inhibition curves, it is possible to calculate an IC50 value for aminodextran and the optimized ligand (Table 6). (The IC50 value is only valid for this particular assay.) TABLE 6

T1 sequence (P11226 21-248): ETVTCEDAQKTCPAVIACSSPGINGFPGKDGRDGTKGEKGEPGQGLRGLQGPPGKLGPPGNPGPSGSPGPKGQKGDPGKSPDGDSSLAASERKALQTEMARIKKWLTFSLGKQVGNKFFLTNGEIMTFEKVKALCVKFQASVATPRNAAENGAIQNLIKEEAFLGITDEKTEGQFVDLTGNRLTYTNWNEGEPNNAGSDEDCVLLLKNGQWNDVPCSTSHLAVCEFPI

IC50 ([1]; coated antigen: AmDex 150K (aminodextran), dilutions of glucose 100 mM to 0 mM, read-out: MBL affinity (IC50) or Abs(0 mM Glc)): 9.7 mM
IC50 ([1]; coated antigen: Polymer of Example A4a, dilutions of glucose 100 mM to 0 mM, read-out: MBL affinity (IC50) or Abs (0 mM Glc)): 50 to 80 mM
IC50 ([1]; glucose inhibiting MBL binding to plate coated with 40 mol% mannose polymer of Example A4 (Example A8), TBS, 1.25 mM CaCl2, pH 7.4, read-out: IC50): 16.8 mM
IC50 ([1]; glucose inhibiting MBL binding to plate coated with 80 mol% mannose polymer of Example A4a, TBS, 1.25 mM CaCl2, pH 7.4, read-out: IC50): 50 to 80 mM
IC50 ([2]; coated antigen: 35 mol% Man Copolymer): 13 mM
IC50 ([2]; coated antigen: Aminodextran): 23 mM
SMILES: OC[C@H]1OC(O)[C@H](O)[C@@H](O)[C@@H]1O (stereo partly drawn) [glucose]
